{
  "source": "paper PMC11582173",
  "about": "“Synthesis, cytotoxicity, anti-inflammatory, anti-metastatic and anti-oxidant activities of novel chalcones incorporating 2-phenoxy-N-arylacetamide and thiophene moieties: induction of apoptosis in MCF7 and HEP2 cells” (Naunyn-Schmiedeberg's Archives of Pharmacology, 2024)",
  "test_system": "Bcl2",
  "assay": "ELISA, Bcl2 concentration",
  "type": "cell-based, human",
  "method": "The concentrations of matrix metalloproteinase-2 (MMP2), matrix metalloproteinase-9 (MMP9), Bcl2, BAX, P53, Malondialdehyde (MDA), Glutathione (GSH), caspase 8, caspase 9 and IL-6 were measured quantitatively in 5c treated MCF7 and HEP2 cells using ELISA (Enzyme-Linked Immunosorbent Assay) (Table 4). Gelatinases are a collective word for MMP-2 and MMP-9, where MMP-2 is gelatinase-A and MMP-9 is gelatinase-B. Solid tumor invasion, metastasis, and angiogenesis have long been linked to gelatinases (Das et al. [2021]). […] Bcl2 is a crucial protein that targets apoptosis inhibition. It is regarded as a predictive biomarker or therapeutic target in the diagnosis of cancer due to its broad expression in a variety of cancers (Porter et al. [2009]). […] The pro-apoptotic protein BAX permeabilizes the mitochondrial outer membrane by changing from a cytosolic monomer to a hazardous oligomer triggering the apoptosis process (Fulda and Debatin [2006]). […] P53 transcription factor performs an essential tumor suppressor role by coordinating a wide range of physiological responses, including DNA repair, cell cycle arrest, cellular senescence, cell death, cell differentiation, and metabolism (Liebl and Hofmann [2021]). It was activated in MCF7 and HEP2-treated cells with values (4.28 and 3.109 ng/mL), respectively, compared to their controls (3.44 and 2.06 ng/mL). […]",
  "note": "Several values for one entry are separate records, joined by “and”; a condition that tells them apart may be missing. Equal entries are not always repeated.",
  "data": [
    {"compound": "COc1ccc(NC(=O)COc2ccc(C=CC(=O)c3cccs3)cc2)cc1", "note": "[Compound 5c, N-(4-Methoxyphenyl)-2-(4-(3-oxo-3-(thiophen-2-yl)prop-1-en-1-yl)phenoxy)acetamide]", "values": [
      {"measurement": "Bcl2 concentration", "setting": "5c treated HEP2 cells, untreated 2299.4±170.35", "value": "1809.34 pg/mL and 1809.34 ± 27.45 pg/mL"},
      {"measurement": "Bcl2 concentration", "setting": "5c treated MCF7 cells, untreated 2479.8±17.08", "value": "2089.96 pg/mL and 2089.96 ± 17.97 pg/mL"}
    ]}
  ]
}
